# Measurements taken from US20160113932A1, “TREATMENT OF CANCERS USING PI3 KINASE ISOFORM MODULATORS” (INFINITY PHARMACEUTICALS, INC., priority 2013, published 2016).
# Marks after values point to notes of the source that are not given here.
# Tests used:
# [1] = test system: advanced hematologic malignancies; assay: Phase 1 dose-escalation study in advanced hematologic malignancies: clinical response; type: in vivo, human
# [2] = test system: serum cytokines/chemokines and matrix metalloproteinases; assay: Serum cytokines/chemokines in patients, Milliplex 96-well immuno-assay; type: in vivo, human; conditions: CLL patients pooled, 8-75 mg BID, C1D8 and/or C2D1
# Description: Serum concentrations of a panel of human cytokines/chemokines were determined by Milliplex 96-well immuno-assay as described below.
# the blood was allowed to clot for at least 30 minutes before centrifugation for 10 minutes at 1000×g. Serum was removed and either assayed immediately or aliquoted and stored at ≦−20° C. When using frozen samples, it is recommended to thaw the samples completely, mix well by vortexing and centrifuge prior to use in the assay to remove particulates.
# 1.0 mL deionized water was added to the bottle containing lyophilized Serum Matrix (catalog number MX HSM from MILLIPLEX® Map), and was allowed to be mixed will for at least 10 minutes for complete reconstitution.
# 200 μL of wash buffer was added into each well of the plate. The plate was sealed and mixed on a plate shaker for 10 minutes at room temperature (20-25° C.). The wash buffer was decanted and the residual amount was removed from all wells by inverting the plate and tapping it smartly onto absorbent towels several times. 25 μL of each standard or control was added into the appropriate wells. […]
# The plate was run on Luminex 200™, HTS, FLEXMAP 3D™ or MAGPIX® with xPONENT software. The Median Fluorescent Intensity (MFI) data was saved and analyzed using a 5-parameter logistic or spline curve-fitting method for calculating cytokine/chemokines concentrations in samples. […]
# [3] = Absolute bioavailability / pharmacokinetics in Sprague-Dawley rats; type: in vivo; conditions: Rat, PO, 10 mg/kg, suspension
# Loucy = assay: T-ALL growth inhibition; type: cell-based, human; conditions: Homo sapiens; PTEN deficient Loucy cell line
# Description: To further explore the individual contributions of the varying PI3K isoforms on T-ALL cell growth, Loucy ALL cells were treated with doxorubicin and various PI3K inhibitors as shown in FIG. 32 at various concentrations as denoted in the figure.
# migration of CLL cells = assay: Chemotaxis assay of CLL cells; type: cell-based, human; conditions: range 2-42%; n=8
# From the text: (FIGS. 35 and 36). […] In addition, this direct inhibitory effect on CLL cells in the lymph nodes could lead to rapid and prolonged responses in cancer patients.
# [4] = CLL/SLL, 16 treated, 11 evaluable
# [5] = T-Cell Lymphoma, 7 treated, 6 evaluable
smiles,measurement,setting,value
C[C@H](Nc1ncnc2[nH]cnc12)c1cc2cccc(Cl)c2c(=O)n1-c1ccccc1 [Compound 292],responders responding by first assessment (within about 2 months),"[1]; B cell lymphoma, 16 out of 18 responders",89%
same,Best Observed Response: CR,[1]; [4],0 n
same,Best Observed Response: PR,[1]; [4],6 n
same,"Time to Response, Median (range)",[1]; [4],"2.9 (1.8, 5.6) Months"
same,Best Observed Response: SD,"[1]; CLL/SLL, 16 treated, 11 evaluable, four nodal responses",4 ^c n
same,Best Observed Response: CR,"[1]; CTCL, T/E 10/4",0 n
same,Best Observed Response: SD,"[1]; CTCL, T/E 10/4",2 n
same,Median Time to Response (range),"[1]; CTCL, T/E 10/4",1.7 (—) ^ Months
same,Best Observed Response: PR,"[1]; HL, 3 treated, 2 evaluable",0 n
same,Best Observed Response: SD,"[1]; HL, 3 treated, 2 evaluable",0 n
same,"Time to Response, Median (range)","[1]; HL, 3 treated, 2 evaluable","1.7 (1.7, 1.7) Months"
same,Best Observed Response: CR,"[1]; HL, T/E 3/3 (Table 16)",1 (33) n(%)
same,Best Observed Response: Overall,"[1]; HL, T/E 3/3 (Table 16)",1 (33) n(%)
same,Best Observed Response: PD,"[1]; HL, T/E 3/3 (Table 16)",1 (33) n(%)
same,Best Observed Response: PR,"[1]; HL, T/E 3/3 (Table 16)",0 n(%)
same,Best Observed Response: SD,"[1]; HL, T/E 3/3 (Table 16)",1 (33) n(%)
same,Median Time to Rsp (Range),"[1]; HL, T/E 3/3 (Table 16)",1.7 Months
same,Best Observed Response: CR,"[1]; MCL, 4 treated, 3 evaluable",0 n
same,Best Observed Response: PR,"[1]; MCL, 4 treated, 3 evaluable",2 n
same,Best Observed Response: SD,"[1]; MCL, 4 treated, 3 evaluable",0 n
same,"Time to Response, Median (range)","[1]; MCL, 4 treated, 3 evaluable","1.9 (1.9, 1.9) Months"
same,responses,"[1]; MCL, 11 evaluable patients, 8, 15 and 25 mg BID",1/1
same,Best Observed Response: CR,"[1]; MCL, T/E 9/6 (Table 16)",1 (17) n(%)
same,Best Observed Response: Overall,"[1]; MCL, T/E 9/6 (Table 16)",4 (67) n(%)
same,Best Observed Response: PD,"[1]; MCL, T/E 9/6 (Table 16)",1 (17) n(%)
same,Best Observed Response: PR,"[1]; MCL, T/E 9/6 (Table 16)",3 (50) n(%)
same,Best Observed Response: SD,"[1]; MCL, T/E 9/6 (Table 16)",1 (17) n(%)
same,Median Time to Rsp (Range),"[1]; MCL, T/E 9/6 (Table 16)",1.8 (1.6-1.9) Months
same,Best Observed Response: CR,"[1]; MM, 3 treated, 3 evaluable",0 n
same,Best Observed Response: PD,"[1]; MM, 3 treated, 3 evaluable",2 n
same,Best Observed Response: PR,"[1]; MM, 3 treated, 3 evaluable",0 n
same,Best Observed Response: PD,"[1]; PTCL, T/E 7/5",3 n
same,Best Observed Response: SD,"[1]; PTCL, T/E 7/5",0 n
same,Median Time to Response (range),"[1]; PTCL, T/E 7/5",2.3 (1.9-2.7) Months
same,patients with at least 50% tumor response,"[1]; T cell lymphoma (2 PTCL and 1 CTCL), CT scans",33 % of the patients
same,Best Observed Response: PD,[1]; [5],3 n
same,"Time to Response, Median (range)",[1]; [5],"2.4 (1.8, 3.1) Months"
same,Best Observed Response: PD,"[1]; TCL Total, T/E 17/9 (Table 15)",4 n
same,Best Observed Response: PR,"[1]; TCL Total, T/E 17/9 (Table 15)",2 n
same,Best Observed Response: SD,"[1]; TCL Total, T/E 17/9 (Table 15)",2 n
same,Median Time to Response (range),"[1]; TCL Total, T/E 17/9 (Table 15)",1.9 (1.7-2.7) Months
same,Best Observed Response: CR,"[1]; aNHL, 5 treated, 3 evaluable",0 n
same,Best Observed Response: PD,"[1]; aNHL, 5 treated, 3 evaluable",2 n
same,Best Observed Response: PR,"[1]; aNHL, 5 treated, 3 evaluable",0 n
same,Best Observed Response: CR,"[1]; aNHL, T/E 13/10 (Table 16)",0 n(%)
same,Best Observed Response: Overall,"[1]; aNHL, T/E 13/10 (Table 16)",0 n(%)
same,Best Observed Response: PD,"[1]; aNHL, T/E 13/10 (Table 16)",6 (60) n(%)
same,Best Observed Response: PR,"[1]; aNHL, T/E 13/10 (Table 16)",0 n(%)
same,Best Observed Response: SD,"[1]; aNHL, T/E 13/10 (Table 16)",4 (40) n(%)
same,Best Observed Response: PR,"[1]; iNHL, 17 treated, 13 evaluable",7 n
same,"Time to Response, Median (range)","[1]; iNHL, 17 treated, 13 evaluable","1.8 (1.7, 2.8) Months"
same,Best Observed Response: CR,"[1]; iNHL, T/E 26/19 (Table 16)",3 (16) n(%)
same,Best Observed Response: MR (Minor Response for Waldenstrom's),"[1]; iNHL, T/E 26/19 (Table 16)",1 (5) n(%)
same,Best Observed Response: Overall,"[1]; iNHL, T/E 26/19 (Table 16)",13 (68) n(%)
same,Best Observed Response: PD,"[1]; iNHL, T/E 26/19 (Table 16)",2 (11) n(%)
same,Best Observed Response: PR,"[1]; iNHL, T/E 26/19 (Table 16)",10 (53) n(%)
same,Best Observed Response: SD,"[1]; iNHL, T/E 26/19 (Table 16)",3 (16) n(%)
same,Median Time to Rsp (Range),"[1]; iNHL, T/E 26/19 (Table 16)",1.8 (1.7-4.1) Months
same,analytes decreased after treatment compared to baseline,[2],10 of 72 analytes
same,Foral,[3],57%
same,IC50,Loucy,245 nM
same,"reduction in migration of CLL cells, % control reduction, median",migration of CLL cells,23%
